# Experimental data published in PubChem BioAssay AID179 (DTP/NCI, 2004).
# Where “and” joins values, the source holds several entries; their conditions need not be identical. Identical values can stand only once. Calls of active or inactive are those of the source.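 How the source made its calls: active means compounds giving half or more protection of infected cells from virus-caused growth loss, again on retest; inactive means the rest.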 Where a SMILES comes first, the peptide text is derived from it.
# System: CEM cells HIV-1 protection, formazan growth assay
# Assay: NCI AIDS Antiviral Assay
# Details: for IC50: measured here: growth of uninfected CEM cells
# In short: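 Human CEM cells, uninfected and HIV-1-infected, exposed to five drug concentrations; growth measured by soluble formazan assay and scored as percent protection from infection, with protecting compounds retested.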
SMILES,EC50,IC50,outcome
COC(=O)CCC(C)C1CCC2C3=CC(=O)C4CC(OC(C)=O)CCC4(C)C3CC(OC(C)=O)C21C (stereo not drawn),> 51.3 µM,37.2 µM,
COC(=O)/C(=N\NC(N)=S)C(C(=O)OC)C(=O)C(=O)Nc1ccc(C)cc1 (stereo not drawn),> 66.1 µM,> 66.1 µM,
CC(=O)O[C@@H]1[C@H]2O[C@H]2[C@H]2O[C@@]2(COC(=O)c2ccccc2)[C@H]1OC(C)=O,> 200 µM,91.2 µM,
C[C@H]1CC[C@@H]2[C@@H](C)[C@H]3[C@H](C[C@H]4[C@@H]5CC=C6C[C@@H](O)CC[C@]6(C)[C@H]5C[C@H](O)[C@]34C)N2C1,,,inactive
C=C(C)C(=O)OC1C[C@H](COC(C)=O)C2CC=C(CO)C2C2OC(=O)C(=C)[C@H]12 (stereo partly drawn),> 200 µM,9.12 µM,
OCCOCC#CCOCCO,> 200 µM,> 200 µM,
O=C(Nc1cc(C(=O)Nc2cccc(S(=O)(=O)O)c2)cc(C(=O)Nc2cccc(S(=O)(=O)O)c2)c1)c1cccc(C(=O)Nc2cc(C(=O)Nc3cccc(S(=O)(=O)O)c3)cc(C(=O)Nc3cccc(S(=O)(=O)O)c3)c2)c1,97.7 µM,> 100 µM,
C/C(=C/CNc1ncnc2c1ncn2CCC(=O)O)CO,> 200 µM,> 200 µM,
"O=C(Cc1ccccc1)N[C@@H]1COC(=O)[C@@H]2CCCN2C(=O)[C@@H]2CCCN2C1=O (HELM PEPTIDE1{[O=C(Cc1ccccc1)[*:2]].[O=C([C@@H](CO[*:3])N[*:1])[*:2]].P.P}$PEPTIDE1,PEPTIDE1,2:R3-4:R2$$$V2.0)",> 200 µM,> 200 µM,
COc1cc(NCC2COc3c(ccc(OC)c3OC)C2=O)c([N+](=O)[O-])cc1OC (stereo not drawn),> 200 µM,186 µM,
O=S(=O)(O)CCNC(=S)C(=S)NCCS(=O)(=O)O,,,inactive
O=C(O)c1cc(O)cc(O)c1N=Nc1ccc(/C=C/c2ccc(N=Nc3c(O)cc(O)cc3C(=O)O)cc2)cc1,70.8 µM and 25.1 µM,132 µM and > 100 µM,
CC12CCCC3(CC(=O)C(C)(C)C3C(=O)C1)C2 (stereo not drawn),> 200 µM,> 200 µM,
O=C(CC(=O)C(=O)Nc1ccccc1)CC(c1ccccc1)c1c(O)c2ccccc2oc1=O (stereo not drawn),> 550 µM,263 µM,
N#Cc1c(Cl)/c(=C/O)c(=O)n2c1nc1ccccc12,> 200 µM,110 µM,
CCOC(=O)c1[nH]cnc1/N=N/N(C)N,> 200 µM,21.4 µM,
O=c1[nH][nH]c(=O)c2[nH]cnc12,,,inactive
COCO[C@@H]1C(=O)N(c2ccccc2)[C@@H]1c1ccccc1,> 178 µM,> 178 µM,
O=C1c2ccccc2S(=O)(=O)c2cc(-c3nn[nH]n3)ccc21,> 200 µM,> 200 µM,
Cc1cc(CSc2ssc(=S)c2-c2ccccc2)c(CSc2ssc(=S)c2-c2ccccc2)cc1C,> 200 µM,> 200 µM,
c1ccc2c(c1)N=C(c1cccc3ccccc13)CC(c1cccc3ccccc13)S2 (stereo not drawn),> 2.51 µM,> 2.51 µM,

SMILES,EC50,IC50,outcome
O=S(=O)(O)c1cc(NC(=S)c2ccc3cccnc3c2O)ccc1/C=C/c1ccc(NC(=S)c2ccc3cccnc3c2O)cc1S(=O)(=O)O,13.8 µM,72.4 µM,
CN(C)CCN1C(=O)c2cccc3cc([N+](=O)[O-])cc(c23)C1=O,> 200 µM,0.0912 µM,
N.N.N.N.O=C([O-])C(Cl)Cl.O=C([O-])C(Cl)Cl.[Co+3].[O-][Cl+3]([O-])([O-])[O-],,,inactive
COc1ccc2c(c1)CCc1c(C(C)=O)c3ccccc3n1C2,> 58.9 µM,> 58.9 µM,
O=C1CCCN(c2ccccc2)N1,> 1410 µM,> 1410 µM,
O=S(=O)(O)c1ccc2c(N=NNc3ccc(NN=Nc4cccc5cc(S(=O)(=O)O)ccc45)cc3)cccc2c1,> 759 µM,457 µM,
O=C(CCl)Nc1cccc2ccccc12,> 200 µM,3.24 µM,
CN1C[C@H]2[C@@H](C1=O)[C@H](c1ccccc1)ON2C,> 200 µM,> 200 µM,
COC(=O)C(=O)C(C(=O)C(N)=O)c1nc2ccc(C(=O)c3ccccc3)cc2[nH]c1=O (stereo not drawn),> 85.1 µM,> 85.1 µM,
CCOC(=O)/C(Cl)=C(\C)Nc1nc2c(ccc3ccccc32)s1,> 100 µM,49 µM,
c1ccc2c(c1)n1c(N3CCCC3)[n+]3ccccc3c1c1c3cccc[n+]3c(N3CCCC3)n21,57.5 µM,> 100 µM,
c1ccc(-c2cc(-c3ccccc3)nc(-c3ccncc3)c2)cc1,> 200 µM,> 200 µM,
CC1(C)C(=O)c2ccccc2OC1N1CCN(C2Oc3ccccc3C(=O)C2(C)C)CC1 (stereo not drawn),,,inactive
CC1(C)CC2CC(CC(C)(C)C2=O)C1=O,> 871 µM,> 871 µM,
COC(=O)CCC(=O)N1Cc2cc(C)ccc2N(C(=O)CCC(=O)OC)Cc2cc(C)ccc21,,,inactive
CN(C)P(CCP(C)C)N(C)C,> 174 µM,> 174 µM,
CC(=O)OCC1OC(n2c(Br)nc3c2c(=O)n(C)c(=O)n3C)C(OC(C)=O)C1OC(C)=O (stereo not drawn),> 200 µM,69.2 µM,
CCOC(=O)Cc1ccc(Nc2nc3cc(C(F)(F)F)ccc3nc2C(=O)OCC)cc1,> 100 µM,> 100 µM,
CC1(O)CC2C(CC1SCCO)C2(C)C (stereo not drawn),> 1070 µM,631 µM,
CC(C)(C)C1(C#N)C(=O)N(c2ccc(Cl)cc2)C12c1ccccc1-c1ccccc12 (stereo not drawn),> 9.12 µM,> 9.12 µM,
N#Cc1c(N)[nH]c2ccc(Sc3ccccc3)cc12,> 70.8 µM,0.0832 µM,

SMILES,EC50,IC50,outcome
CN=S(=O)(c1ccccc1)c1ccccc1,56.2 µM,> 200 µM,
CC12CCC(C(=Nc3cc(C(F)(F)F)cc(C(F)(F)F)c3)C1=O)C2(C)C (stereo not drawn),> 200 µM,37.2 µM,
Nc1ccc2cc3[nH]c4cc(N)ccc4c3nc2c1,> 1.35 µM,0.339 µM,
CN(Cc1cnc2nc(N)nc(N)c2n1)c1ccc(C(=O)N[C@@H](CCC(=O)O)C(=O)O)cc1,> 1.51 µM,0.00372 µM,
COc1ccc(/C=C2/C(=O)N(/C=C3\C(=O)Oc4ccccc4C3=O)C(=NC(C)=O)N2C)cc1OC,> 200 µM,126 µM,
CN(C)c1ccc(/C=C2\CC(C)(C)c3ccccc3C2=O)cc1,> 2 µM,0.363 µM,
CCOC(=O)C1(Sc2ccccc2)CCC2c3[nH]c4ccccc4c3CCN2C1=O (stereo not drawn),> 12.3 µM,> 12.3 µM,
CCOc1ccc(C(C)c2cc3c(cc2OC)OCO3)cc1 (stereo not drawn),> 33.1 µM,0.468 µM,
CC(=O)Nc1ccc(OC(C)(C)C)cc1,> 1200 µM,> 1200 µM,
c1ccc2c3c([nH]c2c1)C1c2[nH]c4ccccc4c2CCN1CC3,> 200 µM,11 µM,
CN(C)c1ccc(/C=C(\C#N)C(=O)c2ccccc2)cc1Br,> 14.8 µM,> 14.8 µM,
CC12CCC(C(Br)C1=O)C2(C)CBr (stereo not drawn),,,inactive
COC(=O)CC1C(=O)OC23CCC1C2(C)CCC1C3CCC2CC(OC(C)=O)CCC21C (stereo not drawn),,,inactive
Brc1ccc2c(c1)C1(c3cc(Br)ccc3-2)c2cc(Br)ccc2-c2ccc(Br)cc21,> 40.7 µM,> 40.7 µM,
COC(=O)C(=O)C(C(=O)C(=O)Nc1cc(C)ccc1C)c1nc2ccc(C(=O)c3ccccc3)cc2[nH]c1=O (stereo not drawn),,,inactive
C/C(=C\Cc1ccc(F)cc1)CCCCCC/C(C)=C/Cc1ccc(F)cc1,> 200 µM,22.4 µM,
O=C1c2ccccc2N2Oc3ccccc3C12c1ccccc1 (stereo not drawn),> 45.7 µM,> 45.7 µM,
CC(CN(C)C)Sc1nnc(SC(C)CN(C)C)s1 (stereo not drawn),,,inactive
Cc1cc2c(c(=O)[nH]1)C(=O)OC2,> 1100 µM,> 1100 µM,
N=C(N)N1CCC(N2CCOCC2)CC1,> 200 µM,> 200 µM,
C/C(=N/NC(=S)N(C)CCc1ccccn1)c1cnccn1,> 0.2 µM,0.0178 µM,

SMILES,EC50,IC50,outcome
CCOP(=O)(OCC)C(Cc1cn(S(=O)(=O)c2ccc(C)cc2)cn1)C(=O)O (stereo not drawn),> 200 µM,> 200 µM,
CC(=O)NC(CCCNC(=O)N(C)N=O)C(=O)NCc1ccccc1 (stereo not drawn),> 708 µM,> 708 µM,
CC1=C2CCC(O)CC2(C)C(O)C1C (stereo not drawn),,,inactive
Cc1ccc(C(=O)N(C(C)C)C(C)C)cc1N=NN(C)C,> 123 µM,97.7 µM,
Cc1ccc2nc3c(Cl)c(C)c(=O)cc-3sc2c1,> 13.5 µM,> 13.5 µM,
CC(C)C(CCl)NC(=O)c1cccc(C(=O)N[C@H](CCl)C(C)C)n1 (stereo in doubt),> 69.2 µM,> 69.2 µM,
Cc1noc(NS(=O)(=O)c2ccc(NC(=O)c3ccc4[nH]c5ccccc5c(=O)c4c3)cc2)c1C,> 200 µM,44.7 µM,
NC(=O)c1ncn(C2CCC(CP(=O)(O)O)C2)c1N (stereo not drawn),> 200 µM,> 200 µM,
CO/C=C1\CCC2c3c(c4ccccc4n3C)CC1N2Cc1ccccc1 (stereo not drawn),> 14.5 µM,8.13 µM,
CCC1C(C)c2c([nH]c3ccccc23)C2C(=O)N(c3ccccc3)C(=O)C21 (stereo not drawn),,,inactive
CO/C(N)=C(\C#N)N=Cc1ccsc1,> 200 µM,126 µM,
Cc1ccc([P+](CCN2C(=O)c3ccccc3C2=O)(c2ccc(C)cc2)c2ccc(C)cc2)cc1,> 200 µM,10 µM,
COc1ccccc1/C=C1\Sc2scc(-c3cccc([N+](=O)[O-])c3)[n+]2C1=O,,,inactive
COc1ccc(C2NC3=C(CCCC3)C3(C#N)C(=O)N=C(N)C23C#N)cc1 (stereo not drawn),> 200 µM,107 µM,
CC(C)(C)c1cc(CCCCCCCC2(CCCCCCCc3cc(C(C)(C)C)cc(C(C)(C)C)c3)OC(COCCOCCCCCC#N)C(COCCOCCCCCC#N)O2)cc(C(C)(C)C)c1 (stereo not drawn),,,inactive
N#Cc1c(OCCF)c2ccccc2n2c1nc1ccccc12,> 100 µM,> 100 µM,
CCOc1ccc(N(CC(=O)N2CC(=O)Nc3cc(C)c(C)cc32)C(C)=O)cc1,> 13.2 µM,> 13.2 µM,
N/C(Cc1ccc(Cl)cc1)=N/O,> 200 µM,> 200 µM,
Cc1ccc(S(=O)(=O)N2CCCSCCSCCCN(S(=O)(=O)c3ccc(C)cc3)CC2)cc1,> 13.2 µM,> 13.2 µM,
COc1cccc2c1C(=O)c1c(O)c3c(c(O)c1C2=O)C[C@@](O)(C(C)O)C[C@@H]3OC1CC(N)C(O)C(C)O1 (stereo partly drawn),,,inactive
N#Cc1c(N=Cc2ccccc2)c(C(=O)Nc2ccccc2)n2c1CCCC2,> 200 µM,> 200 µM,
